Measured values reported in article PMC3553014, “Albumin Stimulates the Activity of the Human UDP-Glucuronosyltransferases 1A7, 1A8, 1A10, 2A1 and 2B15, but the Effects Are Enzyme and Substrate Dependent” (PLoS ONE, 2013).
Values joined by “and” are separate entries in the source; they are usually repeats but may differ in a detail not shown here. Identical values can stand only once. Like-named read-outs stand apart in the source and are kept apart here.

Legend:
[1] = molecular target: T1, UGT2B17 (Homo sapiens, UniProt O75795)
T1 sequence (O75795 24-530): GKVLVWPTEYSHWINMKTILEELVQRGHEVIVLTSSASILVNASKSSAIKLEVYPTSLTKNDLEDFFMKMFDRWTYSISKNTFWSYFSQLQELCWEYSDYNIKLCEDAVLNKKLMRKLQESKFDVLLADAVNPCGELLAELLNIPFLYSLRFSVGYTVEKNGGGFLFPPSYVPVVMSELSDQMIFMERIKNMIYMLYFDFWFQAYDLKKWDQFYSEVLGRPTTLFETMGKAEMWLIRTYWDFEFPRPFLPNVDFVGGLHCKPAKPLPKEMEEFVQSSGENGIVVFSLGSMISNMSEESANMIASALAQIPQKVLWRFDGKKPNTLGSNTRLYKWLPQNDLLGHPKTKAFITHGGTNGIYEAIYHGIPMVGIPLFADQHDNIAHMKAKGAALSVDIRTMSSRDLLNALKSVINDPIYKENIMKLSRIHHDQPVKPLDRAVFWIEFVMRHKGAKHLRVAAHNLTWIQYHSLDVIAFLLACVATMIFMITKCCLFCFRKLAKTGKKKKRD
Method: (§1) Recombinant human UGTs 1A1, 1A6, 1A7, 1A8, 1A10, 2A1, 2B4, 2B7 and 2B17 were expressed as His-tagged proteins in baculovirus-infected insect cells as described previously [14]. […] Protein concentrations were determined by the BCA method (Pierce Biotechnology, Rockford, IL, USA).
(§2) The protein concentrations and incubation times for the enzyme kinetic assays were selected based on preliminary assays in order to ensure that the product formation was within the linear range with respect to both protein concentration and time, and that the substrate consumption during the reaction was less than 10%. The initial velocity measurements were performed in either duplicates or triplicates and they are presented as the average values and S.E.
(§3) The glucuronidation rates by recombinant enzymes are reported as “expression normalized” values. The relative expression level of each recombinant UGT that was produced in our laboratory was determined using immunoblotting, as previously described [14], [19]. The dot blot assays were performed in triplicate and the average value was used for normalization. […] The “expression normalized” glucuronidation rates were calculated by dividing the measured glucuronidation rates with relative expression level of the each given recombinant UGT.
(§4) In assays containing BSA, the total concentrations of substrate were corrected according to the measured drug binding to BSA, under the specific conditions of each glucuronidation assay. The statistical significance of the difference in enzyme kinetics parameters upon BSA addition was tested with extra sum-of-squares F-test (included in the GraphPad software, [20]. The initial glucuronidation rates were fitted to the following equations:

[2] = molecular target: T2, BSA (Bos taurus, UniProt P02769); experiment: in vitro; conditions: bovine
T2 sequence (P02769 25-607): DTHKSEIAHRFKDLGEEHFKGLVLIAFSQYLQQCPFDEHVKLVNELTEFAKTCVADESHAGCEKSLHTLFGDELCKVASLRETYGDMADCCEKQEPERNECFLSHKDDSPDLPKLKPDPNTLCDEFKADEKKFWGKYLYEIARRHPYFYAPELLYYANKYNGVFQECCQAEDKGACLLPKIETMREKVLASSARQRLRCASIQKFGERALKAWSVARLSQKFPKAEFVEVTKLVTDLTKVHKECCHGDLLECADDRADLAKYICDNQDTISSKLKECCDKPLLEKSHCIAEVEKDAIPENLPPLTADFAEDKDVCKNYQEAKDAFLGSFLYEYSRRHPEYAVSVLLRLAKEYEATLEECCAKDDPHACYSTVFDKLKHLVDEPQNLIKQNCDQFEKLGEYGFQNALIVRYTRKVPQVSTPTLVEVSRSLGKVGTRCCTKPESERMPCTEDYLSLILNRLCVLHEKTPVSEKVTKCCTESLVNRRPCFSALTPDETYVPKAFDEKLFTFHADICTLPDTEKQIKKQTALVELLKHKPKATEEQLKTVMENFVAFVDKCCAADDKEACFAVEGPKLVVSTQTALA

[3] = molecular target: T3, UGT1A1 (Homo sapiens, UniProt P22309); experiment: UGT1A1-catalyzed glucuronidation, enzyme kinetics
T3 sequence (P22309 26-533): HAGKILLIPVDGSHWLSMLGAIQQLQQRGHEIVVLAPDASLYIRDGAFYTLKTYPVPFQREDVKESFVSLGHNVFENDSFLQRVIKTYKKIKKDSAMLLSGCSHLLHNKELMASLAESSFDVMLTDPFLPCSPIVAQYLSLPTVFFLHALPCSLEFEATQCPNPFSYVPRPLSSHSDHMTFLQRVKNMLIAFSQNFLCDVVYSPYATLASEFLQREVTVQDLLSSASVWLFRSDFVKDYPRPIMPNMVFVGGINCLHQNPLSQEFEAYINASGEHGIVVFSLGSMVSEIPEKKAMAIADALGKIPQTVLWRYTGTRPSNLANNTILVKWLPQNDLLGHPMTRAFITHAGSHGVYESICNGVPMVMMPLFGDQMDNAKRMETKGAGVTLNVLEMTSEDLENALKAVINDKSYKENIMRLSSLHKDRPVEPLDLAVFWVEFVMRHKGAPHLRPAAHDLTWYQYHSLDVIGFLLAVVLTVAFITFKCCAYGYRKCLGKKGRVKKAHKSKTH
Method: as §1, §2, §3, §4

[4] = molecular target: T4, UGT1A8 (Homo sapiens, UniProt Q9HAW9); experiment: UGT1A8-catalyzed glucuronidation, enzyme kinetics
T4 sequence (Q9HAW9 26-530): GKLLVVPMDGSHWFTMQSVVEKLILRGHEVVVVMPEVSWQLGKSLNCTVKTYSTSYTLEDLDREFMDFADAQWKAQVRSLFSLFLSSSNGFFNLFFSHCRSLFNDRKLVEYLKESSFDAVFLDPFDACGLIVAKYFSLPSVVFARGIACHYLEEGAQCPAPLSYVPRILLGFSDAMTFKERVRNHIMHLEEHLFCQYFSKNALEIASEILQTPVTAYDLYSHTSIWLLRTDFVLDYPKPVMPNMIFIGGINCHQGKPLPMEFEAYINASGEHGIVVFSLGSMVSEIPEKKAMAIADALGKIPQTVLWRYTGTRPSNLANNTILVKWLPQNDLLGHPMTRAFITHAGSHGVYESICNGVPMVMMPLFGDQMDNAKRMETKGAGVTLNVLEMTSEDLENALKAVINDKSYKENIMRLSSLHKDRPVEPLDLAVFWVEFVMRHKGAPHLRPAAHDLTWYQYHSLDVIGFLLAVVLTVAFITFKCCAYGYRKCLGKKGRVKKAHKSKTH
Method: as §1, §2, §3
In assays containing BSA, the total concentrations of substrate were corrected according to the measured drug binding to BSA, under the specific conditions of each glucuronidation assay.

[5] = molecular target: T2, BSA; design: purchased Sigma-Aldrich (St. Louis, MO, USA); conditions: 2% BSA; 25 (Walsky et al. 2012); cited from earlier work
[6] = Drug binding to control insect cell membranes by RED; conditions: 0.2 mg/mL total protein in the membrane
[7] = molecular target: T5, UGT1A6 (Homo sapiens, UniProt P19224); experiment: UGT1A6-catalyzed glucuronidation, enzyme kinetics
T5 sequence (P19224 27-532): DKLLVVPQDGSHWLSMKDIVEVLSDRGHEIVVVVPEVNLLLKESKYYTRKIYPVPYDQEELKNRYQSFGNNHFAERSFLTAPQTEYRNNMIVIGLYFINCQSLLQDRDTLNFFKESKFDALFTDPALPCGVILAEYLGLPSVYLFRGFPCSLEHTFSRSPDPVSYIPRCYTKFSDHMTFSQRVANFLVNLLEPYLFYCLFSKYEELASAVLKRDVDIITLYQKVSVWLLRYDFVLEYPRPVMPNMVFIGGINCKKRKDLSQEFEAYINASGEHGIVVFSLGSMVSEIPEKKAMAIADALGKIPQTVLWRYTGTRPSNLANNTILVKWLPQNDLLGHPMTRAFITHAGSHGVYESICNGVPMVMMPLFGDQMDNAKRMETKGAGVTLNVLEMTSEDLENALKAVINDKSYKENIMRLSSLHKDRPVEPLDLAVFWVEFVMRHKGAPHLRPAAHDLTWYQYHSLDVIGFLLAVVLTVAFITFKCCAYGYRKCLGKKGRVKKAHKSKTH
Method: as §1, §2, §3, §4

[8] = substrate: Cc1cc(=O)oc2cc(O)ccc12; experiment: not read; conditions: other: No BSA, pH 7.4
Method: as §1, §2, §3, §4

[9] = substrate: Oc1ccc2cc[nH]c2c1; experiment: not read; conditions: other: No BSA, pH 7.4
Method: as §1, §2, §3, §4

[10] = substrate: Cc1cc(=O)oc2cc(O)ccc12; experiment: purified protein, by the assay type; conditions: pH 7.4
[11] = substrate: Oc1cccc2ccccc12; experiment: purified protein, by the assay type; conditions: pH 7.4

For `C[C@]12CC[C@@H]3c4ccc(O)cc4CC[C@H]3[C@@H]1CC[C@@H]2O` [17β-Estradiol, 17β-estradiol], the “V max ± S.E.” value [1] was 0.013±0.0002(0.0125–0.0132) nmol•min^–1•mg^–1, the fraction unbound at 8 h [2] was 0.48 ± 0.01 and the “K m or S 50 ± S.E.” value [3] was 7.84±1.62(4.48–11.21) µM. For the same molecule, the “K m or S 50 ± S.E.” value ([3]; 0.1% BSA, substrate concentration corrected for binding to BSA, estradiols: 3-glucuronide formation) was 9.06±1.14(6.70–11.42) µM, the “V max ± S.E.” value [4] was 0.020±0.0003(0.019–0.021) nmol•min^–1•mg^–1 and the “K m or S 50 ± S.E.” value ([4]; 0.1% BSA, substrate concentration corrected for binding to BSA, 17β-estradiol: 3-glucuronide formation) was 4.70±0.62 ^**(3.42–5.99) µM. For the same molecule, the “f u (unbound fraction)” value [5] was 0.04 and the “binding to control insect cell membrane” value [6] was “negligible”.

In the case of `Oc1cccc2ccccc12` [1-Naphthol, 1-naphthol], the “K m or S 50 ± S.E.” value [1] is reported as 540±26(485–595) µM and 484±27(427–541) µM, the “V max ± S.E.” value [1] is reported as 0.28±0.01(0.26–0.31) nmol•min^–1•mg^–1 and the “K m or S 50 ± S.E.” value [3] is reported as 101±11(78–123) µM and 81.6±5.1(71.0–92.1) µM. For the same molecule, the “V max ± S.E.” value [3] was 0.11±0.01(0.10–0.13) nmol•min^–1•mg^–1, the “K m or S 50 ± S.E.” value ([7]; 0.1% BSA, substrate concentration corrected for binding to BSA) was 5.25±0.23 ^***(4.78–5.72) µM and the “K m or S 50 ± S.E.” value ([7]; No BSA) was 8.07±0.48(7.08–9.06) µM. The “V max ± S.E.” value ([7]; No BSA, expression level-normalized) was 6.7±0.1(6.47–6.94) nmol•min^–1•mg^–1, the “K m or S 50 ± S.E.” value [4] was 91.6±6.6(78.0–105.3) µM and 105±16(73–137) µM and the “V max ± S.E.” value [4] was 2.5±0.1(2.3–2.7) nmol•min^–1•mg^–1.

B1: UGT2A1 (Homo sapiens) (protein)
chain: GNVLIWPMEGSHWLNVKIIIDELIKKEHNVTVLVASGALFITPTSNPSLTFEIYKVPFGKERIEGVIKDFVLTWLENRPSPSTIWRFYQEMAKVIKDFHMVSQEICDGVLKNQQLMAKLKKSKFEVLVSDPVFPCGDIVALKLGIPFMYSLRFSPASTVEKHCGKVPYPPSYVPAVLSELTDQMSFTDRIRNFISYHLQDYMFETLWKSWDSYYSKALGGLLLCCPGWSAVADLGSLQPLLPGFKRFSRLSLHCSWDYRLPAGRPTTLCETMGKAEIWLIRTYWDFEFPRPYLPNFEFVGGLHCKPAKPLPKVLWRYKGKKPATLGNNTQLFDWIPQNDLLGHPKTKAFITHGGTNGIYEAIYHGVPMVGVPMFADQPDNIAHMKAKGAAVEVNLNTMTSVDLLSALRTVINEPSYKENAMRLSRIHHDQPVKPLDRAVFWIEFVMRHKGAKHLRVAAHDLTWFQYHSLDVIGFLLVCVTTAIFLVIQCCLFSCQKFGKIGKKKKRE
In the case of B1, the K0.5 [8] is reported as 48.1±4.8(38.2–57.9) µM, the Vmax [8] is reported as 0.0021 µmol/min/mg and the K0.5 [9] is reported as 1474±121(1223–1724) µM. For the same molecule, the Vmax [9] was 0.00079 µmol/min/mg.

B2: UGT2B4 (Homo sapiens) (protein)
chain: GKVLVWPTEFSHWMNIKTILDELVQRGHEVTVLASSASISFDPNSPSTLKFEVYPVSLTKTEFEDIIKQLVKRWAELPKDTFWSYFSQVQEIMWTFNDILRKFCKDIVSNKKLMKKLQESRFDVVLADAVFPFGELLAELLKIPFVYSLRFSPGYAIEKHSGGLLFPPSYVPVVMSELSDQMTFIERVKNMIYVLYFEFWFQIFDMKKWDQFYSEVLGRPTTLSETMAKADIWLIRNYWDFQFPHPLLPNVEFVGGLHCKPAKPLPKEMEEFVQSSGENGVVVFSLGSMVSNTSEERANVIASALAKIPQKVLWRFDGNKPDTLGLNTRLYKWIPQNDLLGHPKTRAFITHGGANGIYEAIYHGIPMVGVPLFADQPDNIAHMKAKGAAVSLDFHTMSSTDLLNALKTVINDPLYKENAMKLSRIHHDQPVKPLDRAVFWIEFVMRHKGAKHLRVAAHDLTWFQYHSLDVTGFLLACVATVIFIITKCLFCVWKFVRTGKKGKRD
In the case of B2, the K0.5 [10] is reported as 298±43(210–387) uM and the K0.5 [11] is reported as 210±12(186–235) uM.

B3: UGT2B17 (Homo sapiens) (protein)
chain: GKVLVWPTEYSHWINMKTILEELVQRGHEVIVLTSSASILVNASKSSAIKLEVYPTSLTKNDLEDFFMKMFDRWTYSISKNTFWSYFSQLQELCWEYSDYNIKLCEDAVLNKKLMRKLQESKFDVLLADAVNPCGELLAELLNIPFLYSLRFSVGYTVEKNGGGFLFPPSYVPVVMSELSDQMIFMERIKNMIYMLYFDFWFQAYDLKKWDQFYSEVLGRPTTLFETMGKAEMWLIRTYWDFEFPRPFLPNVDFVGGLHCKPAKPLPKEMEEFVQSSGENGIVVFSLGSMISNMSEESANMIASALAQIPQKVLWRFDGKKPNTLGSNTRLYKWLPQNDLLGHPKTKAFITHGGTNGIYEAIYHGIPMVGIPLFADQHDNIAHMKAKGAALSVDIRTMSSRDLLNALKSVINDPIYKENIMKLSRIHHDQPVKPLDRAVFWIEFVMRHKGAKHLRVAAHNLTWIQYHSLDVIAFLLACVATMIFMITKCCLFCFRKLAKTGKKKKRD
For B3, the K0.5 [10] was 377±42(291–463) uM, the Vmax [10] was 5e-05 µmol/min/mg and the K0.5 [11] was 540±26(485–595) uM.
